Reference: US20090131331A1 (DSM IP ASSETS B.V., priority 2005, published 2009)
One block for each substance: values may come before it.

Columns and labels:
[1] = tested on: ACE (enzyme obtained from Sigma); test: ACE in phosphate buffered saline (PBS) pH 7.4 with a chloride concentration of 260 mM; conditions: 50° C., up to 60 minutes
ACE [2] = target: ACE (Homo sapiens, UniProt P12821); conditions: literature (Nakamura 1995; Aryoshi 1993); read-out: IC50 reported earlier as ACE inhibiting peptides; cited from earlier work
ACE (Homo sapiens, UniProt P12821), sequence (P12821 30-1306, species assumed): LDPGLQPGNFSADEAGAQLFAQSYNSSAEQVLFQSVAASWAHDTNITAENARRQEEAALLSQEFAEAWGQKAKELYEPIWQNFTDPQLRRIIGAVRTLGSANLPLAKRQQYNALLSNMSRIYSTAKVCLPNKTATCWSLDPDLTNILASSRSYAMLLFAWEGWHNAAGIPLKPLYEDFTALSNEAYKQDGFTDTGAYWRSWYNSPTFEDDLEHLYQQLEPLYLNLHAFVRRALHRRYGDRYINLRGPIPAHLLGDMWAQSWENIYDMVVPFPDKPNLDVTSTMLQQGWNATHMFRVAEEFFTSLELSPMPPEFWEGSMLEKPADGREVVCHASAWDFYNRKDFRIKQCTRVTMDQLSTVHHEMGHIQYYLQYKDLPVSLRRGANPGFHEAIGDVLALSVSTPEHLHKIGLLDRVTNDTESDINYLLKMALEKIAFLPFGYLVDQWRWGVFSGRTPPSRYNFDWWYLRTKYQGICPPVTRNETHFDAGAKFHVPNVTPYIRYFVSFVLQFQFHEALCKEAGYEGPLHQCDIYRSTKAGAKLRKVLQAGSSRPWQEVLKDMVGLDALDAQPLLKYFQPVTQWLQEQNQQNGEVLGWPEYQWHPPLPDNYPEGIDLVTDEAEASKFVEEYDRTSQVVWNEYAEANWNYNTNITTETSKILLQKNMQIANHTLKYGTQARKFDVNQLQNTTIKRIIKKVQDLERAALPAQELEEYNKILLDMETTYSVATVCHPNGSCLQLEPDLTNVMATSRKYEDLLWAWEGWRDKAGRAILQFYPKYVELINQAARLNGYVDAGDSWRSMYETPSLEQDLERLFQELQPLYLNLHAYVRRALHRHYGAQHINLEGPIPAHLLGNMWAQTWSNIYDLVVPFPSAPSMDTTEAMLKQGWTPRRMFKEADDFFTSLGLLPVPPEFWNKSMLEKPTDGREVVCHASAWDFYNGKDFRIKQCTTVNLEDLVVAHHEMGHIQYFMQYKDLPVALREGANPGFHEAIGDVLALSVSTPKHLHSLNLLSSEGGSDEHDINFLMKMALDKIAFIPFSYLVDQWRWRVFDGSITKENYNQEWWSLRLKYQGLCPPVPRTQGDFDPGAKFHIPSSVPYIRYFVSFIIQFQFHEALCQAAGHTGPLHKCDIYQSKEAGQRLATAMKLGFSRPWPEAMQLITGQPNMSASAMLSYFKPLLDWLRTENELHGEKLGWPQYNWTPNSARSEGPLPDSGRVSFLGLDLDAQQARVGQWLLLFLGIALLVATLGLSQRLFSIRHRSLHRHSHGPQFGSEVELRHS

ACE [3] = test: modified Matsui ACE inhibition assay; format: biochemical; conditions: as stated in description text; read-out: IC50 value in the Modified Matsui test
Description: To determine the ACE inhibition activity of MAP and ITP, the chemically synthesised tripeptides were assayed according to the method of Matsui et al. (Matsui, T. et al. (1992) Biosci. Biotech. Biochem. 56: 517-518) with some minor modifications.
Each one of the four samples contained 75 μl 3 mM hippuryl histidine leucine (Hip-His-Leu, Sigma) dissolved in a 250 mM borate solution containing 200 mM NaCl, pH 8.3. ACE was obtained from Sigma. The mixtures were incubated at 37° C. and stopped after 30 min by adding 125 μl 0.5 M HCl. […] After incubation for 20 min. at 37° C., 4 ml 4 mM Na2SO3 in 0.2 M NaH2PO4 was added and the light absorbance at 416 nm was measured with UV/Vis spectrophotometer (Shimadzu UV-1601 with a CPS controller, Netherlands).
The amount of ACE inhibition (ACEI) activity was calculated as a percentage of inhibition compared with the conversion rate of ACE in the absence of an inhibitor according to the following formula: […]
Control 1=Absorbance without ACE inhibitory component (=max. ACE activity) [AU]. Control 2=Absorbance without ACE inhibitory component and without ACE (background) [AU]. Sample1=Absorbance in the presence of ACE and the ACE inhibitory component [AU]. Sample 2=Absorbance in the presence of the ACE inhibitory component, but without ACE [AU]. […]

ACE [4] = test: at-line ACE inhibition assay; format: biochemical
Description: For the at-line ACE inhibition assay 27 μl of a 33.4 mU ml^−1 ACE (enzyme obtained from Sigma) in phosphate buffered saline (PBS) pH 7.4 with a chloride concentration of 260 mM was added and the mixture was allowed to incubate for 5 minutes on a 96 well plate mixer at 700 RPM. After the incubation period 13 μl of a 0.35 mM hippuric acid-histidine leucine (HHL) solution in PBS buffer was added and mixed for 1 minute at 700 RPM. The mixture was allowed to react for 60 minutes at 50° C. in a GC-oven. After the reaction the plate was cooled in melting ice.
The 96 well plate was then analysed on a flash-HPLC-column. Of the reaction mixture of each well 30 μl was injected on a Chromlith Flash RP18e 25×4.6 mm HPLC column (Merck, Darmstadt, Germany) equipped with a 10×4.6 mm RP18e guard column from the same supplier. The isocratic mobile phase consisted of a 0.1% solution of TFA in water/acetonitrile 79/21. […] Hippuric acid (H) and HHL were monitored at 280 nm. The peak heights of H and HHL were measured and the ACE inhibition (ACEI) of each fraction was calculated according to the equation: […]
• DCw Degree of Cleavage by ACE of HHL to H and HL in water • DCa Degree of Cleavage of HHL to H and HL for the analyte The Degree of Cleavage was calculated by expressing the peak height of H as a fraction of the sum of the peak heights of H and HHL.

[5] = tested on: pepsin (Fluka order no. 77161); 8 times USP pancreatin (Sigma order no. P7545); test: simulated human gastro-intestinal tract (GIT procedure): pepsin with falling pH, then pancreatin up to pH 7.1; conditions: 37.5° C., up to t=125 min

cleaved bond [1]: Hip-His
Substance: Hip-His-Leu

IC50 (ACE [3]): 2 µM
IC50 (ACE [4]): 7.1 µM
Substance: IPP: known ACE inhibiting tripeptide, kappa-casein f 108-110; chemically synthesized internal reference
IC50 (ACE [2]): 5 µM

Substance: LPP: known ACE inhibiting tripeptide, β-casein f151-153 (UniProt P02666 166-168, looked up, fragment)
IC50 (ACE [2]): 9.6 µM

Substance: Met-Ala-Pro
amount per gram powder before and after GIT [5]: 2851.4 μg g^−1 powder before, 3095.8 after GIT
